Results reported in patent publication US20190105367A1, “ANTIMICROBIAL 4-OXOQUINOLIZINES” (Emergent Product Development Gaithersburg Inc., priority 2011, published 2019).
Converted amounts (≈) assume the structure as drawn. Where two headings read alike, the source gives them in different places.

Assays:
[1] = tested on: strains of A. baumannii and one strain of Acinetobacter sp.; assay: MIC with sub-inhibitory concentrations (0.25x MIC) of polymyxin B, panel of Acinetobacter strains (Example 4); format: cell-based
A. baumannii ATCC 19606 [2] = assay: MIC without and with sub-inhibitory polymyxin B (Example 4); format: cell-based, Acinetobacter baumannii; conditions: for MIC without PB/MIC + PB: A. baumannii ATCC 19606; for MIC: Acinetobacter baumannii
A. baumannii ATCC 19606 [3] = assay: Preliminary MBC without and with sub-inhibitory polymyxin B (Example 4); format: cell-based, Acinetobacter baumannii; conditions: Acinetobacter baumannii
A. baumannii J2 [4] = assay: MIC without and with sub-inhibitory polymyxin B (Example 4); format: cell-based, Acinetobacter baumannii; conditions: for MIC without PB/MIC + PB: A. baumannii J2
A. baumannii J2 [5] = assay: Preliminary MBC without and with sub-inhibitory polymyxin B (Example 4); format: cell-based, Acinetobacter baumannii; conditions: Acinetobacter baumannii, J2, read-out: MBC +[…] PB, A. baumannii J2; +[…] polymyxin B; preliminary MBC; 1st experiment
[6] = tested on: Acinetobacter sp. (H064200250); assay: MIC without and with sub-inhibitory polymyxin B (Example 4); format: cell-based; conditions: for MIC: Acinetobacter
A. baumannii A329 [7] = assay: as above; format: cell-based, Acinetobacter baumannii; conditions: A. baumannii A329; +0.06 μg/ml PB; 2nd experiment
A. baumannii A329 [8] = assay: Preliminary MBC without and with sub-inhibitory polymyxin B (Example 4); format: cell-based, Acinetobacter baumannii; conditions: Acinetobacter baumannii, A329, A. baumannii A329, +0.06 μg/ml PB, 2nd experiment, read-out: MBC
A. baumannii A390 [9] = assay: MIC without and with sub-inhibitory polymyxin B (Example 4); format: cell-based, Acinetobacter baumannii; conditions: +0.06 μg/ml PB, 2nd experiment
A. baumannii A14 [10] = assay: Preliminary MBC without and with sub-inhibitory polymyxin B (Example 4); format: cell-based, Acinetobacter baumannii; conditions: 2nd experiment
How it was run: (§1)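 Plates were incubated for 18-20 hours at 37° C. MBC was taken as the lowest concentration giving colony growth ca. 90% below the positive control, typically where only single colonies or none appeared.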

A. baumannii A390 [11] = assay: as above; format: cell-based, Acinetobacter baumannii; conditions: Acinetobacter baumannii, A390, A. baumannii A390, +0.06 μg/ml PB, 2nd experiment, read-out: MBC
How it was run: as §1

A. baumannii A473 = assay: as above; format: cell-based, Acinetobacter baumannii; conditions: Acinetobacter baumannii, A473, A. baumannii A473, +0.06 μg/ml PB, 2nd experiment, read-out: MBC
How it was run: as §1

A. baumannii NCTC 13301 [12] = assay: as above; format: cell-based, Acinetobacter baumannii; conditions: Acinetobacter baumannii, NCTC13301, read-out: MBC +[…] PB
How it was run: as §1

A. baumannii A401 [13] = assay: MIC without and with sub-inhibitory polymyxin B (Example 4); format: cell-based, Acinetobacter baumannii; conditions: for MIC: Acinetobacter baumannii
A. baumannii A401 [14] = assay: Preliminary MBC without and with sub-inhibitory polymyxin B (Example 4); format: cell-based, Acinetobacter baumannii; conditions: Acinetobacter baumannii
A. baumannii A472 [15] = assay: MIC without and with sub-inhibitory polymyxin B (Example 4); format: cell-based, Acinetobacter baumannii; conditions: 1st experiment
A. baumannii A472 [16] = assay: Preliminary MBC without and with sub-inhibitory polymyxin B (Example 4); format: cell-based, Acinetobacter baumannii; conditions: Acinetobacter baumannii, A472, read-out: MBC +[…] PB, A. baumannii A472; +[…] polymyxin B; preliminary MBC; 1st experiment
A. baumannii A489 [17] = assay: MIC without and with sub-inhibitory polymyxin B (Example 4); format: cell-based, Acinetobacter baumannii; conditions: for MIC without PB/MIC + PB: A. baumannii A489; for MIC: Acinetobacter baumannii
A. baumannii A489 [18] = assay: Preliminary MBC without and with sub-inhibitory polymyxin B (Example 4); format: cell-based, Acinetobacter baumannii; conditions: Acinetobacter baumannii, preliminary MBC
A. baumannii NCTC 13301 [19] = assay: MIC without and with sub-inhibitory polymyxin B (Example 4); format: cell-based, Acinetobacter baumannii
A. baumannii NCTC 13301 [20] = assay: as above; format: cell-based, Acinetobacter baumannii; conditions: A. baumannii NCTC 13301; +[…] PB; 2nd experiment
A. baumannii A14 [21] = assay: as above; format: cell-based, Acinetobacter baumannii; conditions: 1st experiment
A. baumannii A14 [22] = assay: as above; format: cell-based, Acinetobacter baumannii; conditions: 2nd experiment
A. baumannii A14 [23] = assay: Preliminary MBC without and with sub-inhibitory polymyxin B (Example 4); format: cell-based, Acinetobacter baumannii; conditions: A. baumannii A14; +0.06 μg/ml polymyxin B; preliminary MBC; 1st experiment
[24] = A. baumannii A14, +0.06 μg/ml PB

Question: With `Cc1c(-c2ccc(CN)cc2)ccn2c(=O)c(C(=O)O)cc(C3CC3)c12` [Compound 5, 8-(4-aminomethyl-phenyl)-1-cyclopropyl-9-methyl-4-oxo-quinolizine-3-carboxylic acid] as the compound, how does the “Range ratios MIC without PB/MIC with PB Oct. 1, 2008 n = 8” value ([1]; 1st experiment) read?
Answer: 8-16

Question: What about the “MIC range with PB (0.25x MIC) Oct. 1, 2008 n = 8” value ([1]; 1st experiment, […] polymyxin B, ATCC 19606, A329, A390 and A473 not taken) of the same compound?
Answer: 0.25 to 4 µg/mL

Question: What about the “Range ratios MIC without PB/MIC with PB Oct. 14, 2008 n = 11” value ([1]; 2nd experiment) of the same compound?
Answer: 4-32

Question: And the “MIC range with PB (0.25x MIC) Oct. 14, 2008 n = 11” value ([1]; 2nd experiment, 0.06 μg/ml polymyxin B, all strains except the ATCC strain)?
Answer: 0.25 to 8 µg/mL

Question: What about the “MIC without PB/MIC + PB” value (A. baumannii ATCC 19606 [2]; +0.06 μg/ml PB, 2nd experiment) of the same compound?
Answer: 8

Question: What about the “MIC without PB/MIC + PB” value (A. baumannii ATCC 19606 [2]; ratio, PB 0.06 μg/ml, 1st experiment) of the same compound?
Answer: 4

Question: What about the MIC (A. baumannii ATCC 19606 [2]; ATCC19606, A. baumannii ATCC 19606, +0.06 μg/ml PB, 2nd experiment, read-out: MIC) of the same compound?
Answer: 0.06 µg/mL (≈ 0.172 µM)

Question: What about the MIC (A. baumannii ATCC 19606 [2]; ATCC19606, read-out: MIC +0.06 μg/ml PB, A. baumannii ATCC 19606, +0.06 μg/ml polymyxin B, 1st experiment) of the same compound?
Answer: 0.06 µg/mL

Question: What about the MBC (A. baumannii ATCC 19606 [3]; ATCC19606, A. baumannii ATCC 19606, +0.06 μg/ml PB, 2nd experiment, read-out: MBC) of the same compound?
Answer: 0.06 µg/mL (≈ 0.172 µM)

Question: What about the MBC (A. baumannii ATCC 19606 [3]; ATCC19606, read-out: MBC +0.06 μg/ml PB, A. baumannii ATCC 19606, +0.06 μg/ml polymyxin B, 1st experiment) of the same compound?
Answer: 0.06 µg/mL

Question: What about the “MIC without PB/MIC + PB” value (A. baumannii J2 [4]; +[…] PB, 2nd experiment) of the same compound?
Answer: 8

Question: And the “MIC without PB/MIC + PB” value (A. baumannii J2 [4]; ratio, PB […], 1st experiment)?
Answer: 16

Question: And the MIC (A. baumannii J2 [4]; Acinetobacter baumannii, J2, read-out: MIC +[…] PB, A. baumannii J2, +[…] polymyxin B, 1st experiment)?
Answer: 0.5 µg/mL (≈ 1.44 µM)

Question: What about the MBC (A. baumannii J2 [5]) of the same compound?
Answer: 0.5 µg/mL (≈ 1.44 µM)

Question: What about the MIC [6] of the same compound?
Answer: 4 µg/mL (≈ 11.5 µM)

Question: What about the “MIC without PB/MIC + PB” value ([6]; Acinetobacter spp. H064200250 (OXA51), +[…] PB, 2nd experiment) of the same compound?
Answer: 4

Question: And the “MIC without PB/MIC + PB” value ([6]; Acinetobacter spp. H064200250, ratio, PB […], 1st experiment)?
Answer: 16

Question: And the MIC ([6]; read-out: MIC +[…] PB, Acinetobacter spp. H064200250, +[…] polymyxin B, 1st experiment)?
Answer: 1 µg/mL (≈ 2.87 µM)

Question: And the “MIC without PB/MIC + PB” value (A. baumannii A329 [7])?
Answer: 1

Question: What about the MBC (A. baumannii A329 [8]) of the same compound?
Answer: 8 µg/mL (≈ 23 µM)

Question: And the “MIC without PB/MIC + PB” value (A. baumannii A390 [9]; A. baumannii A390)?
Answer: 4

Question: What about the MIC (A. baumannii A390 [9]; Acinetobacter baumannii, A390, A. baumannii A390, read-out: MIC) of the same compound?
Answer: 2 µg/mL (≈ 5.74 µM)

Question: And the MBC (A. baumannii A14 [10]; [24])?
Answer: 4 µg/mL (≈ 11.5 µM)

Question: And the MBC (A. baumannii A14 [10]; Acinetobacter baumannii, A14, A. baumannii A14, without PB, read-out: MBC)?
Answer: 16 µg/mL (≈ 45.9 µM)

Question: And the MBC (A. baumannii A390 [11])?
Answer: 2 µg/mL (≈ 5.74 µM)

Question: What about the MBC (A. baumannii A473) of the same compound?
Answer: 1 µg/mL (≈ 2.87 µM)

Question: And the MBC (A. baumannii NCTC 13301 [12])?
Answer: 1 µg/mL (≈ 2.87 µM)

Question: And the “MIC without PB/MIC + PB” value (A. baumannii A401 [13]; A baumannii A 401, ratio, PB 0.06 μg/ml, 1st experiment)?
Answer: 8

Question: And the MIC (A. baumannii A401 [13]; A401, A baumannii A 401, +0.06 μg/ml PB, 2nd experiment, read-out: MIC)?
Answer: 4 µg/mL (≈ 11.5 µM)

Question: What about the MIC (A. baumannii A401 [13]; A401, read-out: MIC +0.06 μg/ml PB, A baumannii A 401, +0.06 μg/ml polymyxin B, 1st experiment) of the same compound?
Answer: 2 µg/mL

Question: And the MBC (A. baumannii A401 [14]; A401, A baumannii A 401, +0.06 μg/ml PB, 2nd experiment, read-out: MBC)?
Answer: 4 µg/mL (≈ 11.5 µM)

Question: And the MBC (A. baumannii A401 [14]; A401, read-out: MBC +0.06 μg/ml PB, A baumannii A 401, +0.06 μg/ml polymyxin B, 1st experiment)?
Answer: 2 µg/mL

Question: And the “MIC without PB/MIC + PB” value (A. baumannii A472 [15]; A. baumannii A472, ratio, PB […])?
Answer: 8

Question: What about the MIC (A. baumannii A472 [15]; Acinetobacter baumannii, A472, read-out: MIC +[…] PB, A. baumannii A472, +[…] polymyxin B) of the same compound?
Answer: 1 µg/mL (≈ 2.87 µM)

Question: And the MBC (A. baumannii A472 [16])?
Answer: 1 µg/mL (≈ 2.87 µM)

Question: And the “MIC without PB/MIC + PB” value (A. baumannii A489 [17]; +[…] PB, 2nd experiment)?
Answer: 16

Question: What about the “MIC without PB/MIC + PB” value (A. baumannii A489 [17]; ratio, PB […], 1st experiment) of the same compound?
Answer: 8

Question: And the MIC (A. baumannii A489 [17]; A489, A. baumannii A489, +[…] PB, 2nd experiment, read-out: MIC)?
Answer: 0.5 µg/mL (≈ 1.44 µM)

Question: And the MIC (A. baumannii A489 [17]; A489, read-out: MIC +[…] PB, A. baumannii A489, +[…] polymyxin B, 1st experiment)?
Answer: 0.5 µg/mL (≈ 1.44 µM)

Question: What about the MBC (A. baumannii A489 [18]; A489, A. baumannii A489, +[…] PB, 2nd experiment, read-out: MBC) of the same compound?
Answer: 0.5 µg/mL (≈ 1.44 µM)

Question: And the MBC (A. baumannii A489 [18]; A489, read-out: MBC +[…] PB, A. baumannii A489, +[…] polymyxin B, 1st experiment)?
Answer: 1 µg/mL (≈ 2.87 µM)

Question: What about the “MIC without PB/MIC + PB” value (A. baumannii NCTC 13301 [19]; A. baumannii NCTC 13301, ratio, PB […], 1st experiment) of the same compound?
Answer: 16

Question: And the MIC (A. baumannii NCTC 13301 [19]; Acinetobacter baumannii, NCTC13301, read-out: MIC +[…] PB)?
Answer: 1 µg/mL (≈ 2.87 µM)

Question: And the “MIC without PB/MIC + PB” value (A. baumannii NCTC 13301 [20])?
Answer: 8

Question: And the “MIC +0.06 μg/ml PB” value (A. baumannii A14 [21]; +0.06 μg/ml polymyxin B)?
Answer: 4 µg/mL

Question: What about the “MIC without PB/MIC + PB” value (A. baumannii A14 [21]; ratio, PB 0.06 μg/ml) of the same compound?
Answer: 8

Question: And the MIC (A. baumannii A14 [22]; [24])?
Answer: 4 µg/mL (≈ 11.5 µM)

Question: And the “MIC without PB/MIC + PB” value (A. baumannii A14 [22]; [24])?
Answer: 4

Question: And the MIC (A. baumannii A14 [22]; Acinetobacter baumannii, A14, A. baumannii A14, without PB, read-out: MIC)?
Answer: 16 µg/mL (≈ 45.9 µM)

Question: And the “MBC +0.06 μg/ml PB” value (A. baumannii A14 [23])?
Answer: 8 µg/mL
